What all share (type): cell-based
The test system of one assay is human progenitor cells. The assay is described as follows: Type II collagen immunostaining of micromass cultures, 10 days. Particulars: FIG. 18. As for the experimental part: FIG. 18. A: Bar graph showing the Pentosan Polysulfate (PPS) concentration dependent stimulation of type II collagen production by human progenitor cells in micromass cultures for 10 days as determined by scanning and digital analysis of the immuno stained micromass cultures shown in B. (see text for details).
Micromass cultures of progenitor cells were established in 24-well culture plates at a starting density of 8×10^4 cells/micromass in 1 ml of DMEM (+10% FBS) with/without various concentrations of Pentosan Polysulfate as described above. On Day-5 and Day-10 of culture, media was removed and cultures were fixed with Histochoice MB (Amresco, Solon, Ohio, USA) for 20-30 min at RT. The fixed cultures were washed twice in PBS (5 min each time); […] then washed in PBS for 5 min. […]. After rinsing, first with a gentle stream of PBS, followed by washing 3 times (5 min each time) with PBS, the wells were blocked with […] rinsing with a gentle stream of PBS then 3×washing (5 min each time) with PBS, to each micromass culture was added 200 μl of 1× (BCIP/Buffer+NBT) and the plates incubated in the reaction was stopped when the purple color first became established in the section by washing in running water. Plates and wells were then photographed with a digital camera and the images analysed by using Image J® software (http://rsb.info.nih.gov/ij/) on a personal computer.

The subject of assay [1] is murine ATDC5 progenitor cells. The assay is described as follows: Viability after freeze-thawing cycle, MTT assay. How it is done:
FIG. 2. Bar graph showing the viability of different numbers of murine ATDC5 progenitor cells suspended in cryogenic media containing 7.5% DMSO and various concentrations of Pentosan Polysulfate (PPS) after being subjected to freeze-thawing cycle. Cell viability was determined using the mitochondrial dehydrogenase MTT assay.
Murine Progenitor cells (cell lines C3H10T1/2 or ATDC5) purchased from RIKEN Cell Bank (Tsukuba, Japan) or human immunoselected Stro-1+ progenitor cells (Mesoblast Ltd, Melbourne, Australia) were seeded at a various cell densities over the range of 1.68×10^5-1.0×10^6 cells into 2 mL screw-capped centrifuge tubes containing in DMEM+10% FBS. In separate tubes a stock solution containing 2× the required concentrations of PPS dissolved in DMEM+20% FBS and 15% DMSO were prepared. These stock solutions were added to the cell cultures such that the final concentration of PPS was half that of the stock concentration and of FBS was 10% and DMSO was […]. […] All concentrations of PPS used were examined in triplicated. Cells and the cryopreservation solutions containing the PPS were mixed gently for 5 mins and stored in liquid nitrogen. After 3 days, the tubes were removed from liquid nitrogen and thawed in 37° C. water bath and allowed to stand at ambient temperature for about 15 min. The cells were centrifuged down at 200 g for 5 min and the supernatant discarded. The cells were washed with 900 ul of DMEM without phenol red, and then centrifuged down at 200 g for 5 min. The cells were resuspended in 500 ul of 1 mg/ml MTT solution in DMEM and incubated in 37° C. for 3 hours then centrifuged at 6000 g for 5 min. 300 ul of DMSO was added to each tube to dissolved the dye crystals. 90 ul×3 from each tube were transferred to a 96-well plate and the absorbance at 540 nm determined.
Cell viability was determined using the MTT assay.

The next assay concerns Normal Human MSCs. The assay is described as follows: Freeze/thaw viability of MSCs cryopreserved with PPS, trypan blue cell counts. As for the experimental part:
FIG. 1. The Effects of Pentosan Polysulfate (PPS) on Normal Human MSCs Freeze/Thaw Viabilities. MSCs were rapidly thawed in a 37° C. water bath and washed twice with HHF (HBSS containing 5% (v/v) Foetal Calf Serum). The cells were subsequently seeded into multiple T-75 flasks at 8,000 cells/cm^2. The cells were grown until 70-80% confluent, trypsinised and cryopreserved at cell concentrations of 50×10^6/ml in Profreeze®/7.5% DMSO supplemented with PPS at the indicated concentrations. Ampoules were retrieved from liquid nitrogen storage and rapidly thawed, gently mixed and 10 ul samples removed at time=0, 30, 60, 90 and 120 minutes. To each cell sample, 290 ul of trypan blue was added and cell counts/viability testing performed.
Cells were harvested and resuspended in cold serum free culture medium at 5.0 to 20.0×10^6 cells/ml. An equal volume of chilled complete Profreeze®-CDM medium was added to the chilled cell suspension containing 0, 10, 20, 50 and 100 micrograms/mL of PPS. The resulting final DMSO concentration was 7.5%, PPS concentration was 0, 5, 10, 25 and 50 micrograms/mL and the final cell concentration was approximately 2.5 to 10×10^6 cells/ml. The cell mixture was aliquoted into cryopreservation ampoules (Nunc, Intermed, Denmark) and cryopreserved in a C156 Freezing Container (Thermo Scientific, Melbourne, 21 Australia) at −80° C. for a −1° C./minute controlled cooling rate. The ampoules were then transferred to liquid nitrogen storage (−196° C.).
Cyropreserved cells were rapidly thawed for a minute in a 37° C. water bath and transferred to a 10 mL polypropylene tube. Approximately 3 mL of appropriate media was added dropwise to the cells with constant mixing, and made up to a final volume of 10 mL. Cells were pelleted by centrifugation at 400×g, 4° C. for 5 minutes and the supernatant aspirated. To ensure removal of residual DMSO, cells were washed in medium and centrifuged as above. Cells were resuspended in final volume of 10 mL and seeded in a 75 cm^2 flask prior to incubation in a humidified incubator at 37° C. in the presence of 5% CO2.
Aliquots of single-cell suspensions obtained after thawing progenitor cells from the PPS containing cryopreserved vials were diluted in an equal volume of 0.4% (w/v) trypan blue in phosphate buffered saline (PBS). The cell counts were determined using a haemocytometer (Neubauer Improved, Assistant, Germany) and a light microscope (Olympus CKX41, Japan).

Entries after “also recorded” stand apart in the source; their conditions may differ.

On to pentosan polysulfate [PPS], for which the “Type II Collagen production” value with human progenitor cells (0.5-10 μg/ml, 10 days) is reported as “Increased Type II Collagen production”. Also, the “type II collagen staining” value with human progenitor cells (1-10 micrograms/mL for 10 days) is on record as “intense type II collagen staining”. In addition, the “concentration giving maximum type II collagen levels” value in the assay on human progenitor cells (10 day micromass) came to 5 µg/mL. Also, the “cell viability after freeze-thawing (MTT)” value was “viability was enhanced” in assay [1] (100 μg/ml PPS, 0.25, 0.5 and 1.0 million cells); “enhancement is seen” in assay [1] (500 μg/ml PPS, 0.25 million and 0.5 million cells); “did not appear to enhance viability but was not detrimental to viability” in assay [1] (500 μg/ml PPS, 1 million cells); “enhanced by the presence of PPS at all concentrations” in assay [1] (7.5% DMSO, all PPS concentrations, FIG. 2). The “cell viability after cryopreservation and thawing” value was “beneficial effect on viability at 60 minutes” with Normal Human MSCs (5 μg/ml PPS); “beneficial effect at time point 0 and then at 60 and 90 minutes” with Normal Human MSCs (10 μg/ml PPS); “either enhanced the viability or did not adversely affect the viability” with Normal Human MSCs (25 μg/ml PPS, all time points instead of 30 minutes); “enhanced the viability of the progenitor cells at all time points” in the assay on Normal Human MSCs (50 μg/ml PPS, with the exception of 30 minutes); “did not adversely affect cell viability; also recorded: did not have an adverse effect on the cryopreservation; also recorded: did not have an adverse effect and may enhance the cryopreservation of progenitor cells” with Normal Human MSCs (Profreeze/7.5% DMSO with PPS 5-50 μg/ml, 0-120 min after thawing, FIG. 1); “no detrimental effect on their viability” in the assay on Normal Human MSCs (Profreeze/7.5% DMSO with PPS 5-50 μg/ml, 0-120 min after thawing, FIG. 1, listed as polysulfated polysaccharides).

The values above are taken from US9888679B2, “Protection of progenitor cells and regulation of their differentiation” (Proteobioactives Pty Ltd, priority 2007, dated 2018).
